# Assays:
# Format in all cases: in vivo
# [1] = tested on: potato leafhopper (Empoasca fabae (Harris)); assay: Test C: control of potato leafhopper on Soleil bean plant, contact and/or systemic; conditions: 144 h
# Method: (§1) Test Compounds were formulated using a solution containing 10% acetone, 90% water and 300 ppm Activator 90® non-ionic surfactant (Loveland Products, Loveland, Colo., USA). The formulated Compounds were applied in 1 mL of liquid through an atomizer nozzle positioned 1.27 cm (0.5 inches) above the top of each test unit. Test Compounds were sprayed at the rates indicated, and each test was replicated three times.
# For evaluating control of potato leafhopper (Empoasca fabae (Harris)) through contact and/or systemic means, the test unit consisted of a small open container with a 5-6-day-old Soleil bean plant (primary leaves emerged) inside. White sand was added to the top of the soil, and one of the primary leaves was excised prior to application of the test Compound.
# Test Compounds were formulated and sprayed at 250, 50 and 10 ppm. After spraying of the formulated test Compound, the test units were allowed to dry for 1 hour before they were post-infested with 5 potato leafhoppers (18-to-21-day-old adults). A black, screened cap was placed on the top of the test unit, and the test units were held for 6 days in a growth chamber at 20° C. and 70% relative humidity. Each test unit was then visually assessed for insect mortality.
# [2] = tested on: green peach aphid (Myzus persicae (Sulzer)); assay: Test D: control of green peach aphid on radish plant, contact and/or systemic; conditions: 144 h
# Method: as §1
# For evaluating control of green peach aphid (Myzus persicae (Sulzer)) through contact and/or systemic means, the test unit consisted of a small open container with a 12-15-day-old radish plant inside. This was pre-infested by placing on a leaf of the test plant 30-40 aphids on a piece of leaf excised from a culture plant (cut-leaf method). The aphids moved onto the test plant as the leaf piece desiccated. After pre-infestation, the soil of the test unit was covered with a layer of sand.
# Test Compounds were formulated and sprayed at 250 and 50 ppm. After spraying of the formulated test Compound, each test unit was allowed to dry for 1 hour and then a black, screened cap was placed on top. The test units were held for 6 days in a growth chamber at 19-21° C. and 50-70% relative humidity. Each test unit was then visually assessed for insect mortality.
# [3] = tested on: cotton melon aphid (Aphis gossypii (Glover)); assay: Test E: control of cotton melon aphid on okra plant, contact and/or systemic; conditions: 144 h
# Method: as §1
# For evaluating control of cotton melon aphid (Aphis gossypii (Glover)) through contact and/or systemic means, the test unit consisted of a small open container with a 5-day-old okra plant inside. This was pre-infested with 30-40 insects on a piece of leaf according to the cut-leaf method, and the soil of the test unit was covered with a layer of sand.
# Test Compounds were formulated and sprayed at 250, 50 and 10 ppm. After spraying, the test units were maintained in a growth chamber for 6 days at 19° C. and 70% relative humidity. Each test unit was then visually assessed for insect mortality.
# [4] = tested on: beet army worm [Spodoptera exigua (Hübner)]; assay: Test H: control of beet armyworm on treated soybean leaf pieces; conditions: 96 h
# Method: (§2) For evaluating control of beet army worm [Spodoptera exigua (Hübner)], corn earworm [Helicoverpa zea (Boddie)], and cabbage looper [Trichoplusia ni (Hübner)], the test unit consisted of 4-inch diameter pots with 3-4 week old soybean (for S. exigua) or cotton (for H. zea and T. ni) plants inside. Plants were treated with test Compound sprayed to runoff using a hand-held spray nozzle. Test Compounds were formulated and sprayed at 5 rates. Treated plants dried for 1 hour. Leaves of treated plants were cut into pieces (approximately 4×3 cm), and pieces were placed in cells of plastic trays that each contained agar to maintain humidity. Each cell was infested with a single second-instar larva which represented a separate replicate. Each rate was represented by 16-24 larvae. Cells were sealed with lids. Trays were held for 4 days in a growth chamber with a 16:8-hour (Light:Dark) cycle at 25° C. and 70% relative humidity.
# (§3) Treatments were evaluated by counting the number of live and dead larvae and by visually estimating the percentage of feeding on plant material using a 0-10 rating scale, corresponding to 10% increases from 0-100% feeding.
# [5] = tested on: corn earworm [Helicoverpa zea (Boddie)]; assay: Test H: control of corn earworm on treated cotton leaf pieces; conditions: 96 h
# Method: as §2, §3
# [6] = tested on: cabbage looper [Trichoplusia ni (Hübner)]; assay: Test H: control of cabbage looper on treated cotton leaf pieces; conditions: 96 h
# Method: as §2, §3
# [7] = tested on: Western Flower Thrips (Frankliniella occidentalis (Pergande)); assay: Test G: control of Western Flower Thrips on Soleil bean plant, contact and/or systemic; conditions: sprayed at 10 ppm; 6 days
# Method: as §1
# For evaluating control of the Western Flower Thrips (Frankliniella occidentalis (Pergande)) through contact and/or systemic means, the test unit consisted of a small open container with a 5-7-day-old Soleil bean plant inside.
# Test Compounds were formulated and sprayed at 250, 50, 10 and 2 ppm. After spraying, the test units were allowed to dry for 1 hour, and then ˜60 thrips (adults and nymphs) were added to each unit. A black, screened cap was placed on top, and the test units were held for 6 days at 25° C. and 45-55% relative humidity. Each test unit was then visually assessed for plant damage and insect mortality.
SMILES,mortality at 10 ppm [1] [%],mortality at 10 ppm [2] [%],mortality at 10 ppm [3] [%],mortality at 1 ppm [4] [%],mortality at 10 ppm [4] [%],mortality at 1 ppm [5] [%],mortality at 10 ppm [5] [%],further results
"O=C(NC1C[S+]([O-])C1)c1ccc(C2=NOC(c3cc(Cl)c(F)c(Cl)c3)(C(F)(F)F)C2)c2ccoc12 (single isomer, unassigned) [Compound 57, 4-(5-(3,5-dichloro-4-fluorophenyl)-5-(trifluoromethyl)-4,5-dihydroisoxazol-3-yl)-N-(1-oxidothietan-3-yl)benzofuran-7-carboxamide]",≥ 80,≥ 80,≥ 80,≥ 80,≥ 80,≥ 80,≥ 80,–
"C[C@H](NC(=O)c1ccc(C2=NOC(c3cc(Cl)cc(Cl)c3)(C(F)(F)F)C2)c2sccc12)C(N)=O (stereo partly drawn) [Compound 101, N-[(1S)-2-amino-1-methyl-2-oxo-ethyl]-7-[5-(3,5-dichlorophenyl)-5-(trifluoromethyl)-4H-isoxazol-3-yl]benzothiophene-4-carboxamide]",≥ 80,–,–,≥ 80,≥ 80,≥ 80,≥ 80,mortality at 1 ppm [6]: ≥ 80%; mortality at 10 ppm [6]: ≥ 80%
"O=C(NCc1ncccn1)c1ccc(C2=NOC(c3cc(Cl)c(F)c(Cl)c3)(C(F)(F)F)C2)c2ccsc12 (centres unmarked) [Compound 20, 4-[5-(3,5-dichloro-4-fluorophenyl)-4,5-dihydro-5-(trifluoromethyl)-3-isoxazolyl]-N-(2-pyrimidinylmethyl)benzo[b]thiophene-7-carboxamide]",≥ 80,–,–,–,–,–,–,mortality at 50 ppm [1]: ≥ 80%; mortality at 50 ppm [2]: ≥ 80%; mortality at 50 ppm [3]: ≥ 80%
"O=C(NC1CS(=O)(=O)C1)c1ccc(C2=NOC(c3cc(Cl)c(F)c(Cl)c3)(C(F)(F)F)C2)c2ccoc12 (centres unmarked) [Compound 56, 4-[5-(3,5-dichloro-4-fluorophenyl)-4,5-dihydro-5-(trifluoromethyl)-3-isoxazolyl]-N-(1,1-dioxido-3-thietanyl)-7-benzofurancarboxamide]",≥ 80,–,–,≥ 80,≥ 80,≥ 80,≥ 80,–
"CC(=O)NCc1ccc(C2=NOC(c3cc(Cl)cc(Cl)c3)(C(F)(F)F)C2)c2ccoc12 (centres unmarked) [Compound 79, N-[[4-[5-(3,5-dichlorophenyl)-5-(trifluoromethyl)-4H-1,2-oxazol-3-yl]-1-benzofuran-7-yl]methyl]acetamide]",≥ 80,–,≥ 80,–,–,≥ 80,–,–
"O=C(NC1CSC1)c1ccc(C2=NOC(c3cc(Cl)c(F)c(Cl)c3)(C(F)(F)F)C2)c2ccoc12 (centres unmarked) [Compound 55, 4-(5-(3,5-dichloro-4-fluorophenyl)-5-(trifluoromethyl)-4,5-dihydroisoxazol-3-yl)-N-(thietan-3-yl)benzofuran-7-carboxamide]",≥ 80,≥ 80,≥ 80,–,–,–,–,–
CSCCNC(=O)c1ccc(C2=NOC(c3cc(Cl)c(F)c(Cl)c3)(C(F)(F)F)C2)c2ccoc12 (centres unmarked) [Compound 1],–,–,–,–,–,–,–,control efficacy: plant damage (30% or less plant damage and/or 100% mortality) [7]: ≤ 30%
"CC(=O)NCc1ccc(C2=NOC(c3cc(Cl)c(F)c(Cl)c3)(C(F)(F)F)C2)c2ccoc12 (centres unmarked) [Compound 83, N-[[4-[5-(3,5-dichloro-4-fluorophenyl)-4,5-dihydro-5-(trifluoromethyl)-3-isoxazolyl]-7-benzofuranyl]methyl]acetamide]",≥ 80,≥ 80,≥ 80,≥ 80,–,≥ 80,–,–
